Test systems include CAKI-1 renal; HT29 colon; LOX IMVI melanoma; RXF 393 renal; SK-MEL-5 melanoma; SNB-19 CNS; UACC-257 melanoma; MDA-MB-435; OVCAR-5 ovarian; SK-MEL-2 melanoma.
What all share (assay): growth of human tumour cells (NCI), 48 h

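All cell lines were grown in 96-well plates and treated with compound for 48 hours. GI50 marks 50% less growth. TGI: total growth inhibition.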

With `CC(=O)c1ccc(NC(=O)COC(=O)c2cccc3c(=O)c4ccccc4[nH]c23)cc1`, the TGI in the assay with CAKI-1 renal was over 100 µM; in the assay on HT29 colon, over 100 µM; in the assay with LOX IMVI melanoma it was 51.5 µM; with RXF 393 renal, over 100 µM; in the assay with SK-MEL-5 melanoma it was over 100 µM; with SNB-19 CNS it was 68.6 µM. The molecule further displayed a TGI with UACC-257 melanoma of over 100 µM.

With `Cc1nc2cc(Nc3nc(Nc4ccc(F)cc4)nc(N4CCOCC4)n3)ccc2n1Cc1ccccc1`, the GI50 was 3.89 µM in the assay with CAKI-1 renal; 1.93 µM in the assay on HT29 colon; 4.3 µM in the assay on LOX IMVI melanoma; 3.95 µM in the assay on MDA-MB-435; 12.3 µM in the assay on OVCAR-5 ovarian; 2.49 µM in the assay on SK-MEL-2 melanoma. Moreover, the GI50 with SK-MEL-5 melanoma is 2.9 µM; with SNB-19 CNS, 5.72 µM; in the assay on UACC-257 melanoma, 2.11 µM. In addition, the TGI in the assay on CAKI-1 renal is 18.5 µM; with HT29 colon, 4.07 µM; with LOX IMVI melanoma, 20.7 µM; in the assay with MDA-MB-435 it was 15.9 µM; with OVCAR-5 ovarian, 28.6 µM; with SK-MEL-2 melanoma, 4.94 µM. Moreover, the values for the TGI in the assay with SK-MEL-5 melanoma, in the assay on SNB-19 CNS and in the assay with UACC-257 melanoma were 11.1 µM, over 100 µM and 4.42 µM, respectively.

Turning to `COc1cccc(SSc2cccc(OC)c2C(=O)O)c1C(=O)O`, the TGI in the assay on CAKI-1 renal, in the assay on HT29 colon, in the assay on LOX IMVI melanoma, with OVCAR-5 ovarian, in the assay on RXF 393 renal and in the assay on SK-MEL-2 melanoma was over 100 µM throughout. The TGI with SK-MEL-5 melanoma and with UACC-257 melanoma was over 100 µM in each case.

With `Cc1ccc(-n2nnnc2-c2cnc(N3CCOCC3)nc2-c2cccc(C(F)(F)F)c2)cc1`, the GI50 with CAKI-1 renal was 1.45 µM; in the assay with HT29 colon it was 1.53 µM; in the assay on LOX IMVI melanoma, 2.53 µM; in the assay with OVCAR-5 ovarian, 2.6 µM; in the assay on RXF 393 renal, 1.99 µM; in the assay on SK-MEL-2 melanoma, over 10.8 µM. The GI50 in the assay on SK-MEL-5 melanoma was 0.275 µM; with SNB-19 CNS, 2.21 µM; in the assay with UACC-257 melanoma it was 4.88 µM. In addition, the TGI with CAKI-1 renal is 13.2 µM; in the assay with HT29 colon it was over 18.4 µM; in the assay on LOX IMVI melanoma it was 7.53 µM; with OVCAR-5 ovarian, over 43.1 µM; in the assay with RXF 393 renal, over 14.5 µM; in the assay on SK-MEL-2 melanoma, over 50 µM. The TGI in the assay on SK-MEL-5 melanoma is 3.42 µM; in the assay with SNB-19 CNS, over 32.8 µM; in the assay on UACC-257 melanoma, over 30.5 µM.

Consider `O=c1cccc(-c2cccc(=O)[nH]2)[nH]1`, for which the TGI in the assay with CAKI-1 renal, with HT29 colon, with LOX IMVI melanoma, in the assay on RXF 393 renal, in the assay with SK-MEL-5 melanoma and in the assay on UACC-257 melanoma was over 100 µM in each case.

On to `COc1cc2ccnc3c(=C(SC)SC)c(=O)c(c1OC)c23`, for which the TGI in the assay with CAKI-1 renal was determined as 23.4 µM; in the assay with HT29 colon, 26.2 µM; in the assay on LOX IMVI melanoma it was 10.7 µM; in the assay with OVCAR-5 ovarian it was 35.9 µM; in the assay with RXF 393 renal it was 26.6 µM; with SK-MEL-2 melanoma, 38.3 µM. Moreover, the values for the TGI with SNB-19 CNS and with UACC-257 melanoma were over 100 µM and 30.8 µM, respectively.

As to `O=C1OC(=O)C2C3C=CC(C12)C1C2C=CC2C31` (stereo unspecified), the TGI in the assay on CAKI-1 renal, in the assay with HT29 colon, in the assay on LOX IMVI melanoma, in the assay on OVCAR-5 ovarian, with RXF 393 renal and with SK-MEL-2 melanoma was over 100 µM each time. The TGI in the assay with SNB-19 CNS and in the assay with UACC-257 melanoma was over 100 µM throughout.

For `CC1(C)Cc2c(Br)c(Br)c(Br)c(OCC(O)CN3CCN(c4ccccn4)CC3)c2O1` (stereo unspecified), the GI50 is 5.5 µM in the assay with HT29 colon; 9.22 µM in the assay with LOX IMVI melanoma; 14.3 µM in the assay with MDA-MB-435; 16.2 µM in the assay with OVCAR-5 ovarian; 4.95 µM in the assay with SK-MEL-2 melanoma; 10.8 µM in the assay with SK-MEL-5 melanoma. Moreover, the GI50 is 20.8 µM in the assay with SNB-19 CNS and 16.6 µM with UACC-257 melanoma. The TGI in the assay on HT29 colon amounted to 18 µM; in the assay on LOX IMVI melanoma it was 21.4 µM; with MDA-MB-435 it was 33.6 µM; in the assay with OVCAR-5 ovarian, 31.3 µM; with SK-MEL-2 melanoma, 19.2 µM; with SK-MEL-5 melanoma, 23.1 µM. Also, the TGI was 49.6 µM with SNB-19 CNS and 39.7 µM with UACC-257 melanoma.

For the molecule `CCCCCCCCCCCc1c(O)c(=O)c2c(oc3c(=O)c(CCCCCCCCCCC)c(O)c(=O)c3n2-c2ccc(N(C)C)cc2)c1=O`, the TGI came out at 39.7 µM in the assay with CAKI-1 renal; 46.8 µM in the assay with HT29 colon; 50.7 µM with LOX IMVI melanoma; 50.9 µM in the assay with OVCAR-5 ovarian; 44.4 µM in the assay on RXF 393 renal; 50.4 µM in the assay with SK-MEL-2 melanoma. The TGI in the assay on SK-MEL-5 melanoma came out at 34 µM; with SNB-19 CNS it was 58.9 µM; in the assay on UACC-257 melanoma it was 40.2 µM.

As to `C=C(C(=C)P(=S)(C(C)C)C(C)C)P(=S)(C(C)C)C(C)C`, the TGI in the assay with CAKI-1 renal, in the assay on HT29 colon, in the assay on LOX IMVI melanoma, with OVCAR-5 ovarian, in the assay on RXF 393 renal and in the assay with SK-MEL-5 melanoma was over 100 µM throughout. In addition, the TGI in the assay with SNB-19 CNS and in the assay on UACC-257 melanoma was over 100 µM throughout.

In the case of `CC(=O)NC(C=O)C(O[C@H](C)C(=O)NC(C)C(=O)NC(CCC(N)=O)C(=O)OCc1ccccc1)C(O)C(O)COC(=O)CCNc1c2ccccc2nc2cccc([N+](=O)[O-])c12` (stereo partly specified), the TGI in the assay with CAKI-1 renal amounted to 93.1 µM; with HT29 colon, 7.88 µM; in the assay on LOX IMVI melanoma, 31.3 µM; in the assay on OVCAR-5 ovarian, 13.2 µM; in the assay on RXF 393 renal, 12 µM; in the assay on SK-MEL-2 melanoma it was 3.05 µM. Moreover, the TGI with SK-MEL-5 melanoma was over 100 µM; with SNB-19 CNS it was 17.4 µM; with UACC-257 melanoma, 20.3 µM.

Consider `CC(=O)c1ccc(NC(=O)C(=O)C(C#N)CC(C)(C)C=O)cc1` (stereo unspecified), for which the TGI in the assay with CAKI-1 renal, with HT29 colon, with LOX IMVI melanoma, with OVCAR-5 ovarian, with SK-MEL-2 melanoma and in the assay with SK-MEL-5 melanoma was over 100 µM throughout. Further, the TGI in the assay with SNB-19 CNS and in the assay with UACC-257 melanoma was over 100 µM in each case.

As for `COc1ccc(NC(=O)CC(=O)n2nc(C)c(N=Nc3ccccc3C(=O)O)c2C)cc1`, the TGI in the assay on CAKI-1 renal, with HT29 colon, with LOX IMVI melanoma, in the assay with OVCAR-5 ovarian, in the assay with SK-MEL-2 melanoma and in the assay on SK-MEL-5 melanoma was over 100 µM each time. Besides, the TGI in the assay on SNB-19 CNS and in the assay with UACC-257 melanoma was over 100 µM throughout.

For the origin of these results see PubChem BioAssay (NCI).
